Entries after “also recorded” stand apart in the source; their conditions may differ.
Legend:
[1] = tested on: SHH signaling pathway in the intervertebral disc; experiment: Intraperitoneal SAG in adult mice, real-time RT-qPCR of lumbar discs for SHH and its downstream targets; format: in vivo, mouse; settings: i.p., 10 mg/kg body weight, every day for seven days, vs water
Description: To test the potential for activation of SHH or SHH signaling for disc therapy and treatment of lower back pain, a small molecule agonist of hedgehog signaling pathway called SAG that activates the smoothened receptor downstream of the ligand was administered to mice. Adult mice were administered intraperitoneally either with water or SAG dissolved in water at a concentration of with 10 mg/kg body weight. The mice were treated every day for seven days. Next day, the lumbar discs were collected for RNA isolation and real-time RT-qPCR analysis for SHH and its downstream targets. […] Upregulation of SHH mRNA expression was also associated with an increase in the expression of its downstream targets Ptch1 and Gli1.

[2] = tested on: SHH signaling pathway in the intervertebral disc; experiment: as above; format: in vivo, mouse; settings: middle-aged mice, intraperitoneal injection
[3] = tested on: one-year-old mouse disc; settings: in vitro; cited from earlier work

Row | Compound | expression of ECM marker Col2 [1] | expression of ECM marker Sox9 [1] | expression of downstream target Gli1 [1] | expression of downstream target Ptch1 [1] | mRNA expression of SHH compared to controls [1] | expression of ECM protein ACAN [2] | ECM production [3] | increase in cell proliferation [3] | stimulation of Hedgehog signaling [3]
1 | CNC1CCC(N(Cc2cccc(-c3ccncc3)c2)C(=O)c2sc3ccccc3c2Cl)CC1 (stereo not drawn) [SAG] | increased expression; also recorded: upregulation | increased expression; also recorded: upregulation | increase; also recorded: upregulation | increase; also recorded: upregulation | increased; also recorded: up-regulation | upregulation |  |  | 
2 | O=C1Nc2cc(Br)ccc2/C1=C1/Nc2ccccc2/C1=N\O [BIO] |  |  |  |  |  |  | increased | Not observed | increased
